Active and inactive are the calls of the source.
Columns and labels:
[1] = NIH-3T3 fibroblast cytotoxicity, dose response, cytotoxicity control, cell-based, fluorescence, Alamar Blue, secondary assay (AID 2327); type: functional;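 further: NIH-3T3 mouse fibroblasts cultured with fluconazole at 8 µg/mL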
cells [2] = type: functional, cell-based
[3] = fluconazole-exposed Candida albicans growth modulators – fluorescence, retest, confirmation (AID 2467); type: functional, cell-based
cells [4] = type: functional, cell-based; remark: listed apart in the source
[5] = Luminescence Cell-Based Dose Retest to Confirm Inhibitors of Cancer Stem Cells. [Related pubchem assays (depositor defined):AID2717, AID2721]; type: functional; details: Homo sapiens
[6] = molecular target: Cyclin-dependent kinase 5/CDK5 activator 1 (Homo sapiens, UniProt Q00535); assay: blockade of human CDK5 activity – biochemical, cherry-picked samples, set 2, dose response (AID 504545)
[7] = molecular target: T1, Replicative DNA helicase DnaB (Mycobacterium tuberculosis, UniProt P9WMR3); assay: DnaB intein splicing inhibitors, dose response, biochemical, cell-free fluorescence (AID 449749); type: functional
T1 sequence (P9WMR3 whole entry): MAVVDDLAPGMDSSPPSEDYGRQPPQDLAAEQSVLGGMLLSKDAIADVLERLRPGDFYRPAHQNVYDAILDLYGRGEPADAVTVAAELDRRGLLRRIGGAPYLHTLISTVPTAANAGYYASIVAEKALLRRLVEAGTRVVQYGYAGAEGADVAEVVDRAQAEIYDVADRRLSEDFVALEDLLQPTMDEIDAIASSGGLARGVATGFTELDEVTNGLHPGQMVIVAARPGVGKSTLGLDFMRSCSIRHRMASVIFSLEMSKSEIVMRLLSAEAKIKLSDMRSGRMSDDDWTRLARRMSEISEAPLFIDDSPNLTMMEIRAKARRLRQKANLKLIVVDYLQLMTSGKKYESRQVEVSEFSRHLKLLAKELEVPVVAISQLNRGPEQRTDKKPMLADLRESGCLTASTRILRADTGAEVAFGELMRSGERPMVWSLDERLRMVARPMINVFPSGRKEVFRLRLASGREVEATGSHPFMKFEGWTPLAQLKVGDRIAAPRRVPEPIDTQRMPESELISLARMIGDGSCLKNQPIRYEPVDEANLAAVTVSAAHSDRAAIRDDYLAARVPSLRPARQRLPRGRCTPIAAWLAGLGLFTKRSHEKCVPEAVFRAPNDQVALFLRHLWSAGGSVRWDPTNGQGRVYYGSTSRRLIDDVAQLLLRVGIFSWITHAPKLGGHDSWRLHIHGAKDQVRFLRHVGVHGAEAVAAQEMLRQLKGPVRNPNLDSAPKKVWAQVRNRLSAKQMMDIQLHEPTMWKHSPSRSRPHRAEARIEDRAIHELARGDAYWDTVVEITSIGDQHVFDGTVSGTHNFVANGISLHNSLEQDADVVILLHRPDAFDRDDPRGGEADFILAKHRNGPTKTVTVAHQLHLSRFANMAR

Protein RecA = molecular target: T2, Protein RecA (Mycobacterium tuberculosis, UniProt P9WHJ3); assay: Fluorescence Cell-Free Homogeneous Dose Retest to Identify Inhibitors of RecA-Intein Splicing Activity. [Related pubchem assays (depositor defined):AID2097, AID2223, AID489010, AID492950]; type: functional
T2 sequence (P9WHJ3 whole entry): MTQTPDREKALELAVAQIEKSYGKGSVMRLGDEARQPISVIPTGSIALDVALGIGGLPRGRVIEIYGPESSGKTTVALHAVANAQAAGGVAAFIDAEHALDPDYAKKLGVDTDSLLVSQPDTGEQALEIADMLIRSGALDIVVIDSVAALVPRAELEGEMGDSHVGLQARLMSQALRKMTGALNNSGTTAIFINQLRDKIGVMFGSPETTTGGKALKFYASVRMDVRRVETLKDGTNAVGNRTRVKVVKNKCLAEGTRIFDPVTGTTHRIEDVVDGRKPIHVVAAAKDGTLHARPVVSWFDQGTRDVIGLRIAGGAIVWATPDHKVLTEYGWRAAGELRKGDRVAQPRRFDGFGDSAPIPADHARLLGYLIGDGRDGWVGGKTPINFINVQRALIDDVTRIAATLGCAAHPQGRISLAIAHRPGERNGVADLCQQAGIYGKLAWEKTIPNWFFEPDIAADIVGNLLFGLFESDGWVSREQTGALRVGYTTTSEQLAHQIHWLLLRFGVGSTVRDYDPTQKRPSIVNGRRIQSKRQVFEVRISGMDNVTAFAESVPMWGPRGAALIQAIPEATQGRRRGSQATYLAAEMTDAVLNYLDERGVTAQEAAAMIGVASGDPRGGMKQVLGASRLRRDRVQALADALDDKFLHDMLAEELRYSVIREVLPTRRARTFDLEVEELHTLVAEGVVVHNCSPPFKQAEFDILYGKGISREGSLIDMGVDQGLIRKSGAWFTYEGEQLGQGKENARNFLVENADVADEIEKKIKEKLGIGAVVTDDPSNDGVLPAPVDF

[8] = molecular target: Dual specificity tyrosine-phosphorylation-regulated kinase 1A (Rattus norvegicus, UniProt Q63470); type: biochemical, Homo sapiens
[9] = viability loss in HeLa cells – cytotoxicity control for MgcRacGAP inhibitor project, dose response (AID 624300); type: functional
[10] = molecular target: T3, Rac GTPase-activating protein 1 (Homo sapiens, UniProt Q9H0H5); assay: blockers of MgcRacGAP-driven Rac1 GTP hydrolysis – biochemical, ADP Hunter fluorescence, primary and confirmatory, confirmation (AID 624330); type: functional
T3 sequence (Q9H0H5 whole entry): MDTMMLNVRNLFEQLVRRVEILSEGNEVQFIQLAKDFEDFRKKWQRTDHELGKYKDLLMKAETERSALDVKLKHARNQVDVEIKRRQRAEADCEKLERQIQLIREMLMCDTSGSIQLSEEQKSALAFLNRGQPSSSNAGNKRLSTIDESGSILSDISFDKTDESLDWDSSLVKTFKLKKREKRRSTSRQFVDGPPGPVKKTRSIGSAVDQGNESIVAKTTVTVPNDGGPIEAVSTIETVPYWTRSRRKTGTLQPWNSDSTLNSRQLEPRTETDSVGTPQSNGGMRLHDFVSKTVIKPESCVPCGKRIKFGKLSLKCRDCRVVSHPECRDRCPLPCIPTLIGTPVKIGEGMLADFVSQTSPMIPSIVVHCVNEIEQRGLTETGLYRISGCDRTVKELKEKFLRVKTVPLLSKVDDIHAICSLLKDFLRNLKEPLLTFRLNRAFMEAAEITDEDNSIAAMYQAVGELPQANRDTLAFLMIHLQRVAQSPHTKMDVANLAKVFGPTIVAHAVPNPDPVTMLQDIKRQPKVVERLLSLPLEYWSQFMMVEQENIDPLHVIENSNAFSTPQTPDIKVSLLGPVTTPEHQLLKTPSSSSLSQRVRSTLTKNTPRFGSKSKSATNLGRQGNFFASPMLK

Chain of Cyclin-dependent kinase 5/CDK5 activator 1 (Q00535 whole entry): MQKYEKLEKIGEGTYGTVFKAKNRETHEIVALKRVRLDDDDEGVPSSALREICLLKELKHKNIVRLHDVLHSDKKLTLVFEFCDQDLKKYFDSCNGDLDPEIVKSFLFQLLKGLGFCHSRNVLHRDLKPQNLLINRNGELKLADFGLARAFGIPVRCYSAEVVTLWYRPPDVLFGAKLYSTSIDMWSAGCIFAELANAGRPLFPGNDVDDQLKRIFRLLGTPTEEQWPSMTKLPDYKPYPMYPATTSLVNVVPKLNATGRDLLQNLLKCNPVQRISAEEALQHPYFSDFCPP
Chain of Cyclin-dependent kinase 5/CDK5 activator 1 (Q15078 whole entry, further chain): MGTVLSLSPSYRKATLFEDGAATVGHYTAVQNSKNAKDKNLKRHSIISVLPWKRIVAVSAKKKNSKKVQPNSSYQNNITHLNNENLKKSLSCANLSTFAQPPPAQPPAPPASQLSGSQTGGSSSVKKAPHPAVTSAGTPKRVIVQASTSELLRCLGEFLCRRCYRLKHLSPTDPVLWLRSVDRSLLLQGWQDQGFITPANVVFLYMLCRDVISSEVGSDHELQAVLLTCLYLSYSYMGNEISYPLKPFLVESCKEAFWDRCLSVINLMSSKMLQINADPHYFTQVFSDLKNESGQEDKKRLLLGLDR

Oc1ccc(/C=N/Nc2ccc(C(F)(F)F)cn2)c(O)c1
EC50 [1]: > 150 µM (inactive) | EC50 (cells [2]): 27.7 µM (active) | EC50 [3]: > 38 µM (not active) | EC50 (cells [4]): 44.7 µM (active) | AC50 [5]: 8.01 µM (active) | AC50 [6]: 11.8 µM (active) | AC50 [7]: 81.4 µM (active) | EC50 (Protein RecA): 110 µM (inconclusive) | AC50 [8]: 5.23 µM (active) | CC50 [9]: 100 µM (active) | IC50 [10]: 37 µM (active)

— ChEMBL document CHEMBL1201862, “PubChem BioAssay data set” (2004)
